According to patent US8017630B2 (priority 2004, dated 2011):
Like-named read-outs stand apart in the source and are kept apart here.

How the values were obtained:
5HT uptake = format: biochemical, rat
NA uptake = format: biochemical, rat

In the case of CN(C)C1(c2ccccn2)CCC(CC(=O)NCCc2c[nH]c3ccccc23)CC1.Cl (centres unmarked) [Example 47, 2-(4-Dimethylamino-4-pyridin-2-ylcyclohexyl)-N-[2-(1H-indol-3-yl)ethyl]acetamide hydrochloride], the “5HT uptake % (10)” value (5HT uptake; hydrochloride) was 46%, the “NA uptake % (10)” value (NA uptake; hydrochloride) was 63% and the melting point was 150 to 153 °C.

In the case of CN(C)C1(c2ccccn2)CCC(CC(=O)NCCc2c[nH]c3ccccc23)CC1.Cl (centres unmarked) [Example 48, 2-(4-Dimethylamino-4-pyridin-2-ylcyclohexyl)-N-[2-(1H-indol-3-yl)ethyl]acetamide hydrochloride], the “5HT uptake % (10)” value (5HT uptake; hydrochloride) was 85% and the “NA uptake % (10)” value (NA uptake; hydrochloride) was 74%.

With CN(C)C1(c2ccccn2)CCC(CC(=O)NCCCc2ccccc2)CC1.Cl (centres unmarked) [Example 49, 2-(4-Dimethylamino-4-pyridin-2-ylcyclohexyl)-N-(3-phenylpropyl)acetamide hydrochloride] the “5HT uptake % (10)” value (5HT uptake) was 32%, the “NA uptake % (10)” value (NA uptake) was 94% and the melting point was 218 to 220 °C.
